Measurements published in patent publication US20210395310A1, “Cyclic Peptide” (The University of Tokyo, priority 2018, published 2021).
Positions of bridges follow the written chain, without caps; N, C: chain ends. Non-standard residues stand in square brackets, D forms with d. Residues, ends and D or L forms follow the SMILES beside them. Primed or numbered codes have the meaning given here. PEG11′ = PEG11 linker (11-unit polyethylene glycol spacer); PEG12 = NCCOCCOCCOCCOCCOCCOCCOCCOCCOCCOCCOCCOCCC(=O)O; βAla = NCCC(=O)O

Assays:
[1] = system: PC-9 cells; test: Gefitinib resistance test; format: cell-based, human; conditions: gefitinib, HGF 20 ng/mL, 72 hours
Procedure: The resistance to gefitinib, an anticancer agent, was tested by seeding human lung cancer cells, PC-9 cells, on a 24-well plate and cultured for 24 hours on a RPMI medium containing 10% fetal bovine serum. The number of living cells was counted after non-addition or addition of gefitinib ([…]), HGF (20 ng/mL), or HiP8-PEG11 (1-1000 nM) and culturing for 72 hours.

[2] = system: phosphorylation of MET, Gab1, Akt, and Erk1/2; test: Western blotting analysis of HGF-induced phosphorylation in EHMES-1 cells; format: cell-based; conditions: 2 nM HGF, HiP-8 10, 100, 1,000, 10,000 nM
Procedure: EHMES-1 cells were cultured on a 6-well plate until they were from 80 to 90% confluent. After starvation for 6 hours, the cells were stimulated for 10 minutes with 2 nM hHGF in a culture medium in the absence of a cyclic peptide or in the presence of 10, 100, 1,000, or 10,000 nM cyclic peptide. The resulting cells were washed with PBS and lysed with 200 μl of lysis buffer 17 (product of R&D Systems) containing 1× Complete protease inhibitor cocktail (product of Roche). The protein concentration was measured by BCA assay (product of Thermo Fisher Scientific), and the protein was provided for 10% polyacrylamide gel SDS-PAGE. The protein was transferred onto a PVDF (polyvinylidene difluoride) membrane (Bio-Rad) and detected using a Can Get Signal (registered trademark) solution 1 containing a primary antibody (diluted at 1:2000), that is, MET (CST, 25H2), phospho-MET (Tyr1234/1235) (CST, D26), Akt (CST, 11E7), phospho-Akt (Ser473) (CST, D9E), Erk1/2 (CST, 137F5), phospho-Erk1/2 (Thr202/Tyr204) (CST, D13.14.4E), Gab1 (CST) and phospho-Gab1 (Tyr627) (CST, C32H2), and Can Get Signal (registered trademark) solution 2 (product of Toyobo) containing a horseradish peroxidase-bound secondary antibody (product of Dako) (diluted at 1:5000). […]

[3] = system: B16-F10 melanoma; test: Cell migration test; format: cell-based; conditions: transwell, 16 hours
Procedure: B16F10 cells (1×10^5 cells/insert) cultured in 200 μl of a RPMI1640 medium containing 0.5% FBS were seeded in the upper insert (transwell having a diameter of 8 mm, product of Corning) while 800 μl of a RPMI1640 medium with or without hHGF or HiP-8, or an anti-human HGF rabbit polyclonal antibody and supplemented with 0.5% FBS was added to the bottom chamber. The cells were cultured for 16 hours and fixed with 4% PFA solution in PBS. The cells attached to the bottom surface of the membrane were stained with 0.4% crystal violet solution in 20% methanol and the number of cells was counted.

[4] = biological target: T1, HGF (Homo sapiens, UniProt P14210); test: Binding of cyclic peptides to immobilized HGF by SPR (Biacore T200); conditions: immobilized biotinylated HGF, single cycle kinetics
T1 construct: the full-length human HGF cDNA was cloned into pEHX1.1 plasmid; made in house; host or cells: Chinese hamster ovary (CHO) cells
Procedure: Binding of the cyclic peptides to immobilized HGF was measured using surface plasmon resonance (SPR) with Biacore T200 (product of GE Healthcare). Specifically, 2000 resonance units (RU) of biotinylated HGF was immobilized onto a CAP sensor chip by using a biotin capture kit (product of GE Healthcare).
Binding of the cyclic peptides was tested by injecting varying concentrations of the cyclic peptides into an HBS EP+buffer (10 mM HEPES (pH 7.4), 150 mM NaCl, 3 mM EDTA, and 0.05% (v/v) Surfactant P20) containing 0.1% DMSO at a flow rate of 30 μl/min. Binding of the cyclic peptides to HGF was analyzed by single cycle kinetics analysis.

[5] = biological target: T2, HGF-MET interaction (Homo sapiens, UniProt P14210); test: Competition of HiP-8 against binding between HGF or HGF fragment and MET ECD by SPR; conditions: immobilized MET external domain, varying HiP-8 concentrations
T2 construct: the full-length human HGF cDNA was cloned into pEHX1.1 plasmid; made in house; host or cells: Chinese hamster ovary (CHO) cells (HGF)
Procedure: Competition of HiP-8 against the binding between HGF or HGF fragment and MET ECD was measured by surface plasmon resonance (SPR) with Biacore 3000 (product of GE Flealthcare). His-labeled MET-ECD was supported on the surface of a nitrilotriacetic acid (NTA)-coated chip at 1000 RU. HiP-8 was mixed in advance at gradually increasing concentrations with 5 nM HGF, 30 nM NK4, or 30 nM SP fragment, and the resulting mixture was tested in 10 mM TBS (pH 7.4), 300 mM NaCl, and 0.05% Tween 20 (v/v) at a flow rate of 30 μl/min.

[6] = biological target: T1, HGF; test: Change in conformational structure of HGF: trypsin digestion; conditions: HGF 2.5 μM ± HiP-8 10 μM, room temperature, 30 minutes
Procedure: System of HGF (2.5 μM) with or without HiP-8 were digested with trypsin at room temperature for 30 minutes. A trypsin:HGF molar ratio was set at 0:1, 0.004:1, 0.012:1, 0.037:1, 0.11:1, 0.33:1, and 1:1. The product obtained by digestion was analyzed on from 5 to 20% SDS-PAGE under reducing conditions and stained with Coomassie Blue.
Target sequence in this assay (P14210 32-489 isoform P14210-3): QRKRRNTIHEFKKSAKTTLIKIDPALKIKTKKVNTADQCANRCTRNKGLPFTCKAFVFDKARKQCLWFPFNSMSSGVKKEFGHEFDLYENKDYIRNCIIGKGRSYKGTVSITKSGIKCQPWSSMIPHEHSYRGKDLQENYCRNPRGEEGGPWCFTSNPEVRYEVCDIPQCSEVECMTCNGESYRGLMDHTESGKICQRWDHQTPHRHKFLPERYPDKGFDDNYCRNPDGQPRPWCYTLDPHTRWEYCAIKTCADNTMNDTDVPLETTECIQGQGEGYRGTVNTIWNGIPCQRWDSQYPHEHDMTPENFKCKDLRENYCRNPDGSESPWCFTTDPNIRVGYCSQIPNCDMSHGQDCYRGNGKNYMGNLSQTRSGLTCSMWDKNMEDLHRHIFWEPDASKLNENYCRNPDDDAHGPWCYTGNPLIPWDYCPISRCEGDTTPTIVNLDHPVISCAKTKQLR
Target sequence in this assay (P14210 495-728): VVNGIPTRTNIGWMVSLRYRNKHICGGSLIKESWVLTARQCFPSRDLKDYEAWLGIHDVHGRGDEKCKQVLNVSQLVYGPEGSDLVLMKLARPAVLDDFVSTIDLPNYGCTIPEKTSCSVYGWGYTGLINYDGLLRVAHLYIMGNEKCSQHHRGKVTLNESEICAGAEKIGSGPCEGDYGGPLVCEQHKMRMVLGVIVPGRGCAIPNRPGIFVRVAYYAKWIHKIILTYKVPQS

[7] = biological target: T3, tcHGF (Homo sapiens, UniProt P14210); test: Tissue staining of frozen human lung cancer tissue; conditions: thirty six lung cancer tissue sections
T3 construct: subjected to extracellular processing (cleavage) by a specific protease and is to be converted into two-chain HGF; tissue US Biomax FLU401B; host or cells: frozen human lung cancer tissue sections
Procedure: A frozen human lung cancer tissue array FLU401B was obtained from US Biomax. A tissue section was fixed in a 4% (w/v) paraformaldehyde PBS solution at room temperature for 30 minutes, treated for one hour with a 3% (w/v) bovine serum-derived albumin (BSA) PBS solution to prevent non-specific adsorption of a probe, and incubated overnight at 4° C. with HiP-8-PEG11-biotin, a primary antibody against human HGF (clone: t5A11, Umitsu M, Sakai K, Ogasawara S, Kaneko M, Asaki R, Tamura-Kawakami K, Kato Y, Matsumoto K, Takagi J. Probing conformational and functional states of human hepatocyte growth factor by a panel of monoclonal antibodies. Scientific Reports, 6: 33149, 2016), or phosphorylated MET (phospho Y1230/1234/Y1235, product of Abeam) diluted with Can Get Signal (registered trademark) antibody staining (product of Toyobo).
After washing three times with PBS, the probes were detected with streptavidin or goat anti-mouse IgG labeled with Alexa Fluor 488 and goat anti-rabbit IgG (product of Thermo Fisher Scientific) labeled with Alexa Fluor 594.
For semi-quantitative detection of antibody staining, stained region and mixed region in each tissue was quantitatively determined by ImageJ software (product of NIH). […]

[8] = biological target: T1, HGF; test: Binding of HGF to immobilized HiP8-PEG11 by SPR (Biacore 3000); conditions: immobilized HiP-8-PEG11, read-out: KD of HGF binding to immobilized peptide
Procedure: (§1) Binding of HGF and HGF fragments to immobilized HiP8-PEG11 was measured by surface plasmon resonance (SPR) with Biacore 3000 (product of Ge Flealthcare). Hip8-PEG11-biotin was supported on the surface of a streptavidin-coated chip at 10 RU (resonance unit). The test was performed by injecting HGF and HGF fragments with varying concentrations into 10 mM TBS (pH 7.4), 150 mM NaCl, and 0.05% Tween 20 (v/v) at a flow rate of 30 μl/min. Binding affinity was analyzed from a fitting model of steady-state affinity by multi-cycle kinetics analysis.
(§2) HGF was an active type HGF without substitution of the cleavage site of wild type HGF (KQLR/V) with the recognition sequence of Factor Xa (IEGR/V) and domain-deficiency and was a two-chain HGF capable of activating MET. tcHGF (Xa) was an HGF with substitution of the cleavage site of the HGF with the recognition sequence of Factor Xa (IEGR/V) and was cleaved into two chains by the Factor Xa treatment. It was also a two-chain HGF capable of activating MET. On the other hand, scHGF (Xa) was obtained by substituting the cleavage site of HGF with the recognition sequence of Factor Xa (IEGR/V).

[9] = biological target: T4, scHGF(Xa) (Homo sapiens, UniProt P14210, K491I/L493G/Q492E); test: Binding of scHGF(Xa) to immobilized HiP8-PEG11 by SPR (Biacore 3000); conditions: immobilized HiP-8-PEG11
T4 construct: The full-length HGF protein and N-terminally truncated HGF protein; hexahistidine (with TEV site) (C, cleaved yes); made in house; host or cells: Expi293F cells
Procedure: as §1, §2

[10] = system: MET activation/tyrosine phosphorylation; test: MET activation inhibition test in mice; format: in vivo; conditions: human HGF knocked-in SCID mice with PC-9 tumors, intravenous injection
Excerpt: PC-9 human non-small cell lung cancer cells, which were to express human HGF, were transplanted subcutaneously to human HGF knocked-in SCID mice at 3×10^6 cells/site. On day 28 after transplantation, HiP8-PEG11 in PBS/phosphate buffered physiological saline solution was intravenously injected. The tumor tissue was removed, and MET activated/tyrosine-phosphorylated and a total MET amount in the tumor tissue were quantitatively determined by western blotting with the tissue extract. It is to be noted that the tumor tissue was homogenized in a RIPA buffer solution. Each sample containing […] of the protein was provided for SDS-PAGE and western blotting. Tyrosine-phosphorylated MET and a total MET amount were detected by western blotting.

[11] = biological target: T5, tcHGF(Xa) (human, UniProt P14210 32-490; P14210 495-728); test: SPR, Biacore 3000, HiP8-PEG11-biotin on streptavidin chip, tcHGF(Xa) injected, steady-state affinity
T5 construct: A C-terminal hexahistidine tag was added and the sample was treated with TEV protease; also called mature HGF (Xa)
Procedure: A very limited portion of the scHGF(Xa) bound to HiP-8-PEG11. A binding rate was detected by surface plasmon resonance (SPR). RU represents a resonance unit (resonance unit). The upward arrow and the downward arrow mean start and end of HGF input, respectively. Data are expressed as mean±s.d. of typical sensorgrams performed in two iterations by using HGFs having a plurality of concentrations.
as §1

T5 sequence (P14210 other isoform, or with tags, fused parts or gaps limits assumed, chain 1 of 2): as the sequence (P14210 32-489 isoform P14210-3) above, with K455I, Q456E, L457G counted along it
T5 sequence (P14210 495-728 limits assumed, chain 2 of 2): as the sequence (P14210 495-728) above
T2 sequence (P14210 32-489 isoform P14210-3): as the sequence (P14210 32-489 isoform P14210-3) above
T2 sequence (P14210 495-728): as the sequence (P14210 495-728) above
T4 sequence (P14210 32-723 isoform P14210-3 K486I/Q487E/L488G): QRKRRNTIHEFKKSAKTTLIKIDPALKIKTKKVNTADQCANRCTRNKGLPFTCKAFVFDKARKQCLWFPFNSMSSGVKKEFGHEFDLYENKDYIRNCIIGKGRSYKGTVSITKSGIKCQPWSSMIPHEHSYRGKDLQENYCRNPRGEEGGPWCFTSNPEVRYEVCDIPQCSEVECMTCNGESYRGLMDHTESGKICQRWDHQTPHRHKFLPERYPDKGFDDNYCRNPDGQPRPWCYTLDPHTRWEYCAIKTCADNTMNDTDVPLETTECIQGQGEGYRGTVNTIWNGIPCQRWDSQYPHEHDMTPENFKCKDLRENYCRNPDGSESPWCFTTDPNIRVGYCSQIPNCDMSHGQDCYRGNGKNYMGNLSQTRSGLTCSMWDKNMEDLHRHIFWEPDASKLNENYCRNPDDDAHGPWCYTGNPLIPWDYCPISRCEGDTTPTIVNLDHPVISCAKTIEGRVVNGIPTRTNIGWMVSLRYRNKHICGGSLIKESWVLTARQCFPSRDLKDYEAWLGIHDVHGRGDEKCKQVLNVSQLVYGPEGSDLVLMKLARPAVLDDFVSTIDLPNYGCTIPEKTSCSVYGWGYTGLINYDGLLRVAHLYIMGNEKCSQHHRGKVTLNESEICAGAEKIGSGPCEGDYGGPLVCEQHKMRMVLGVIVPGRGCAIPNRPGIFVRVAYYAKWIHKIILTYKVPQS
T3 sequence (P14210 32-494 limits assumed): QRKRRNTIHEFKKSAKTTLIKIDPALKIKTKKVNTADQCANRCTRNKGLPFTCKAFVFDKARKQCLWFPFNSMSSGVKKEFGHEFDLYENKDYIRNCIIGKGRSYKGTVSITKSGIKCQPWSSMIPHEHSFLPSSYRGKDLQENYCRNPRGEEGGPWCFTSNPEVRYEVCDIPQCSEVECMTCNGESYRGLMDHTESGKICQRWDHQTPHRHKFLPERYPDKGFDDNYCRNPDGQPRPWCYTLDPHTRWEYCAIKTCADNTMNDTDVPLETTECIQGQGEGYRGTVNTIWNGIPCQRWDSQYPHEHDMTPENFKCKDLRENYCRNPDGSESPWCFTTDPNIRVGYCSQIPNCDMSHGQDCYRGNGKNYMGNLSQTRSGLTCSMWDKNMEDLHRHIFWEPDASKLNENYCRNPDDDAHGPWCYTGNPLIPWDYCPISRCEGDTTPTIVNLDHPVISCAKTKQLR
T3 sequence (P14210 495-728 limits assumed): as the sequence (P14210 495-728) above

CC(C)C[C@@H]1NC(=O)[C@@H]2CCCN2C(=O)[C@@H](Cc2c[nH]c3ccccc23)NC(=O)CSC[C@@H](C(=O)NCC(N)=O)NC(=O)[C@H](CCCNC(=N)N)NC(=O)[C@H](CCCCN)NC(=O)[C@H](CO)NC(=O)[C@H](Cc2ccc(O)cc2)NC(=O)[C@H](Cc2c[nH]c3ccccc23)NC(=O)[C@H](Cc2c[nH]c3ccccc23)NC(=O)[C@H](CCCCN)NC(=O)[C@H](CO)NC1=O [HiP-8, PLSKWWYSKR]
effect on gefitinib resistance induced by HGF [1]: inhibited gefitinib resistance induced by HGF
phosphorylation of MET, Gab1, Akt, and Erk1/2 induced by HGF [2]: inhibited phosphorylation of MET, Gab1, Akt, and Erk1/2
B16-F10 melanoma migration induced by HGF [3]: inhibited B16-F10 melanoma migration induced by HGF at a level equivalent to that of an anti-HGF antibody
kon ([4]; read-out: Ka (association rate)): 1.1e+06 M⁻¹ s⁻¹
koff ([4]; read-out: Kd (dissociation rate)): 0.0004 s⁻¹
mode of inhibition of HGF-MET interaction [5]: uncompetitive inhibition of HGF-MET interaction
structural change of HGF (trypsin proteolysis of SP chain) [6]: induced a change in the conformation of HGF
correlation of staining intensity of tcHGF detected by peptide with pMET [7]: strong correlation with the staining intensity of pMET

CC(C)C[C@@H]1NC(=O)[C@@H]2CCCN2C(=O)[C@H](Cc2c[nH]c3ccccc23)NC(=O)CSC[C@@H](C(=O)NCCC(=O)NCCOCCOCCOCCOCCOCCOCCOCCOCCOCCOCCOCCOCCC(N)=O)NC(=O)[C@H](CCCNC(=N)N)NC(=O)[C@H](CCCCN)NC(=O)[C@H](CO)NC(=O)[C@H](Cc2ccc(O)cc2)NC(=O)[C@H](Cc2c[nH]c3ccccc23)NC(=O)[C@H](Cc2c[nH]c3ccccc23)NC(=O)[C@H](CCCCN)NC(=O)[C@H](CO)NC1=O [HiP-8-PEG11] ({CH2CO}-WPLSKWWYSKRC[βAla][PEG12]-NH2; thioether N-12)
Kd [8]: 0.9 nM
binding of scHGF(Xa) to immobilized peptide [9]: very limited portion of the scHGF(Xa) bound
MET activation/tyrosine phosphorylation in tumor tissue [10]: dose-dependent inhibition of MET activation/tyrosine phosphorylation

B1: HiP-8-PEG11-biotin (peptide)
peptide: {CH2CO}-[dW]PLSKWWYSKRC-{βAla-PEG11′-K(D-biotin)}
modifications: thioether N-12 (inferred)
notes: also called immobilized HiP-8-PEG11; HiP-8 (in the staining text)
Kd [11]: 2.5 nM
